Assay results reported in patent US20040018983A1, “Antifungal compositions” (Achillion Pharmaceuticals, Inc., priority 2001, published 2004).
≈ marks a conversion by molar mass, not a printed value. Like-named read-outs stand apart in the source and are kept apart here.

Test system: C. albicans
Assay: Fungal susceptibility to zinc finger selective antifungals: broth microdilution growth inhibition (OD 405 nm), with and without a zinc finger blocking compound
Type: cell-based, Candida albicans
Details: for blocking of antifungal action by glutathione and cysteine (zinc finger mechanism): discussion of Table 2; for MIC: Candida albicans, 48 h, read-out: C. albicans MIC; for Fold Increase: increase of MIC with blocking compound (cysteine or glutathione) over MIC alone; for C. albicans MIC + 200 μg/ml cysteine: with 200 μg/ml cysteine as zinc finger blocking compound; for C. albicans MIC + 200 μg/ml glutathione: with 200 μg/ml glutathione as zinc finger blocking compound
Method: A panel of Candida clinical isolates (including azole-resistant species) plus single isolates of Aspergillus fumigates, were used to evaluate the activity of the test compounds in vitro. Inocula were prepared as broth cultures (yeasts) or as suspensions of fungal material made from agar slope cultures (molds). The test compounds were pipetted from DMSO stock solution into water to provide a series of […] dilutions. […] (other fungi). Growth in the microcultures was measured by its optical density (OD) measured at a wavelength of 405 nm. The OD for cultures with test compounds was calculated as a percentage of the control, drug-free OD. Inhibition of growth to 35% of control or less was recorded as significant inhibition (Table 2).

[1] = no blocking compound, CYG medium, 2 days at 37° C., inhibition of growth to 35% of control or less

| MIC [1] [µg/mL] | Compound | blocking of antifungal action by glutathione and cysteine (zinc finger mechanism) | Fold Increase [Fold] | C. albicans MIC + 200 μg/ml cysteine [µg/mL] | C. albicans MIC + 200 μg/ml glutathione [µg/mL] | MIC [µg/mL] |
| --- | --- | --- | --- | --- | --- | --- |
|  | CN(C)c1ccc(N=O)cc1 [Compound 9, 4-nitroso-N,N-dimethylaniline] | blocked to a somewhat different extent by the two different blocking compounds, but in both cases the effect is significant |  |  |  |  |
| 4 (≈ 22.8 µM) | O=Nc1ccc2oc(=O)ccc2c1 [Compound 2, 6-nitroso-1,3-benzopyrene] |  | 4 | 16 | 16 |  |
|  | O=Nc1ccc(Nc2ccccc2)cc1 [Compound 12, 4-nitrosodiohenylamine] |  | 8 | 16 | 16 | 2 (≈ 10.1 µM) |
| 8 (≈ 34.7 µM) | c1csc(SSc2cccs2)c1 [Compound 6, di(2-thienyl)disulphide] |  | 2 | 16 | 16 |  |

| Compound | MIC [1] [µg/mL] | blocking of antifungal action by glutathione and cysteine (zinc finger mechanism) | Fold Increase [Fold] | C. albicans MIC + 200 μg/ml cysteine [µg/mL] | C. albicans MIC + 200 μg/ml glutathione [µg/mL] | MIC [µg/mL] |
| --- | --- | --- | --- | --- | --- | --- |
| Cc1ccccc1N=O [Compound 4, 2-nitrosotoluene] | 16 (≈ 132 µM) | not blocked by either glutathione or cysteine | 0 | 16 | 16 |  |
